Among the data in patent US20120202856A1, “SUBSTITUTED BENZIMDAZOLE DERIVATIVES USEFUL AS TRPM8 RECEPTOR MODULATORS” (priority 2011, published 2012) are inhibition and IC50 values, retold here.

The structures appear in SMILES notation. Several values for one entry are separate records, joined by “and”; a condition that tells them apart may be missing. Equal values may be shown once. Where a name gives a salt, the structure may show the parent alone. Read-outs that look alike come from different tables or passages of the source.

This test has as its target T1, canine TRPM8 (Canis lupus familiaris, UniProt Q1A7N1).
T1 construct: expressed in transfected cells
As to the kind of experiment: In Vitro Canine TRPM8 Functional Assay (intracellular Ca2+ fluorescence, icilin activation, HEK293 cells). Format: cell-based. The note with it: for inhibition at 0.2 µM: individually measured values; for IC50: HEK293 cells expressing canine TRPM8, icilin activation, individually measured values (batches/salt forms), read-out: IC50 (nM), in vitro TRP M8 Activity. In outline:
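Inhibition of icilin-evoked calcium influx measured by Calcium 3 fluorescence (FLIPR or FDSS) in canine TRPM8 HEK293 cells. After basal subtraction, data expressed as percent of maximum; quadruplicate means fitted by sigmoidal dose–response to give IC50.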

Setting [1] is: HEK293, 0.2 μM test compound, read-out: % Inh (%) @0.2 μM, in vitro TRP M8 Activity.

T1 sequence (Q1A7N1 1-1104): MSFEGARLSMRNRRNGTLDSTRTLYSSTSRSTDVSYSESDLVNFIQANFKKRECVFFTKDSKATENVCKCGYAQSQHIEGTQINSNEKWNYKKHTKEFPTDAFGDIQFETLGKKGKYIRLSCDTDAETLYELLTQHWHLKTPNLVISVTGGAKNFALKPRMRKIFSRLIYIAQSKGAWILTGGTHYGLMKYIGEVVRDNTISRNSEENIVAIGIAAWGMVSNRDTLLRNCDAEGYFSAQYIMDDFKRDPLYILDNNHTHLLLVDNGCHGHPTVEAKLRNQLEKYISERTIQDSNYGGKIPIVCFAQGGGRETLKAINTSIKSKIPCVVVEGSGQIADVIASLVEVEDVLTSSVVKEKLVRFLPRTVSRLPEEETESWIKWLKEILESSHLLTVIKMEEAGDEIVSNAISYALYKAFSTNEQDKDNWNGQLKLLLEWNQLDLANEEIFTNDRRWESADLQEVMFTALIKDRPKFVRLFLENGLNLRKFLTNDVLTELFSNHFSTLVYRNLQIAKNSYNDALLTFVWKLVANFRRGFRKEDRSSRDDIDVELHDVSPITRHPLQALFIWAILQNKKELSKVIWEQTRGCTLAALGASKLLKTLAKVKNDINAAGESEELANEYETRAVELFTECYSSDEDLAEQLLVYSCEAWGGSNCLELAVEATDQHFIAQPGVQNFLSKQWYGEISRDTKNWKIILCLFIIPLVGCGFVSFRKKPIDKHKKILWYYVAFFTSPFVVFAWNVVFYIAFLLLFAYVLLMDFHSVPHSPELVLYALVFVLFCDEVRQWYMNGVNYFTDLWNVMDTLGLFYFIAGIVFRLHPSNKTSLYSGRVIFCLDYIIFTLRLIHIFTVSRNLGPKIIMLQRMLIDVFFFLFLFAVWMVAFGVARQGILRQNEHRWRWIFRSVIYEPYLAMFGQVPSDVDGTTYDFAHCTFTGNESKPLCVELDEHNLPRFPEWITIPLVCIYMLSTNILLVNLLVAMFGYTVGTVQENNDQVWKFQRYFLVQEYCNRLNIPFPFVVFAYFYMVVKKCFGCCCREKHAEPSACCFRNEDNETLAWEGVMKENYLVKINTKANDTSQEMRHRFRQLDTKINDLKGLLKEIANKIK

With `Cc1nc(C(C)(C)C)oc1-c1nc2cc(-c3ccccc3)cc(C(F)(F)F)c2[nH]1` [Compound 178, 2-(2-tert-Butyl-4-methyl-oxazol-5-yl)-5-phenyl-7-trifluoromethyl-1H-benzimidazole hydrochloride], the inhibition at 0.2 µM under setting [1] was 17%.

By IC50 is commonly meant the concentration that gives 50% inhibition. With `Cc1c(C(C)(C)C)nn(C)c1-c1nc2cc(-c3c(C(F)(F)F)cccc3C(F)(F)F)ccc2[nH]1` [Compound 97, 5-(2,6-Bis-trifluoromethyl-phenyl)-2-(5-tert-butyl-2,4-dimethyl-2H-pyrazol-3-yl)-1H-benzimidazole hydrochloride], the IC50 stood at 6.9 nM.

Consider `Cc1c(C(C)(C)C)nn(C)c1-c1nc2cc(-c3ccccc3Cl)ccc2[nH]1` [Compound 94, 2-(5-tert-Butyl-2,4-dimethyl-2H-pyrazol-3-yl)-5-(2-chloro-phenyl)-1H-benzimidazole hydrochloride], for which the concentration for half-maximal inhibition (IC50) was determined as 4.5 nM.

On to `Cn1nc(C(C)(C)C)c(Cl)c1-c1nc2cc(-c3ccccc3Cl)cc(C(F)(F)F)c2[nH]1` [Compound 128, 2-(5-tert-Butyl-4-chloro-2-methyl-2H-pyrazol-3-yl)-5-(2-chloro-phenyl)-7-trifluoromethyl-1H-benzimidazole sodium salt], for which the IC50 was 2.7 nM and 5.1 nM. The inhibition at 0.2 µM under setting [1] was determined as 99%.

As for `Cc1c(C(C)(C)C)nn(C)c1-c1nc2cc(-c3c(F)cccc3C(F)(F)F)cc(Cl)c2[nH]1` [Compound 137, 2-(5-tert-Butyl-2,4-dimethyl-2H-pyrazol-3-yl)-7-chloro-5-(2-fluoro-6-trifluoromethyl-phenyl)-1H-benzimidazole hydrochloride], the concentration for half-maximal inhibition (IC50) is 3 nM and 4.7 nM. Besides, under setting [1], the inhibition at 0.2 µM amounted to 99%.

On to `COc1cccc(F)c1-c1ccc2[nH]c(-c3cc(C(C)(C)C)no3)nc2c1` [Compound 64, 2-(3-tert-Butyl-isoxazol-5-yl)-5-(2-fluoro-6-methoxy-phenyl)-1H-benzimidazole trifluoroacetic acid salt], for which the half-maximal inhibitory concentration (IC50) was determined as 8.7 nM.

As to `CC(C)(C)c1cc(-c2nc3cc(-c4ccccc4OC(F)(F)F)cc(C(F)(F)F)c3[nH]2)on1` [Compound 143, 2-(3-tert-Butyl-isoxazol-5-yl)-5-(2-trifluoromethoxy-phenyl)-7-trifluoromethyl-1H-benzimidazole sodium salt], the 50% inhibitory concentration (IC50) was 2.5 nM and 3.7 nM. The inhibition at 0.2 µM (HEK293, read-out: % Inh (%) @0.2 μM, in vitro TRP M8 Activity, 0.2 μM test compound) is 99%.

For `CC(C)(C)Cc1cc(-c2nc3ccc(-c4ccccc4C(F)(F)F)cc3[nH]2)on1` [Compound 20, 2-[3-(2,2-Dimethylpropyl)isoxazol-5-yl]-6-(2-trifluoromethylphenyl)-1H-benzimidazole hydrochloride], the concentration for half-maximal inhibition (IC50) came out at 19 nM.

In the case of `COc1cccc(F)c1-c1ccc2[nH]c(-c3cnc(C(C)(C)C)n3C)nc2c1` [Compound 70, 2-(2-tert-Butyl-3-methyl-3H-imidazol-4-yl)-5-(2-fluoro-6-methoxy-phenyl)-1H-benzimidazole trifluoroacetic acid salt], the IC50 was 134 nM.

With `Cn1nc(C(C)(C)C)c(C#N)c1-c1nc2cc(-c3ccccc3F)cc(C(F)(F)F)c2[n-]1.[Na+]` [Compound 147, 3-tert-Butyl-5-[(5-(2-fluoro-phenyl)-7-trifluoromethyl-1H-benzimidazol-2-yl]-1-methyl-1H-pyrazole-4-carbonitrilesodium salt], the 50% inhibitory concentration (IC50) was 5.9 nM and 4.8 nM and 5.1 nM. For the same compound, the inhibition at 0.2 µM under setting [1] came to 100%.

Regarding `FC(F)(F)Oc1ccccc1-c1ccc2[nH]c(-c3cc(Br)no3)nc2c1` [Compound 43, 2-(3-Bromoisoxazol-5-yl)-5-(2-trifluoromethoxyphenyl)-1H-benzimidazole sodium salt], the IC50 turned out to be 94.6 nM.

`CC(C)c1cc(-c2nc3cc(-c4ccccc4)ccc3[nH]2)on1` [Compound 1, 2-(3-Isopropylisoxazol-5-yl)-5-phenyl-1H-benzimidazole sodium salt]: the concentration for half-maximal inhibition (IC50) came out at 111 nM.

On to `Cn1nc(C(C)(C)C)cc1-c1nc2cc(-c3ccccc3OC(F)(F)F)ccc2[nH]1` [Compound 14, 2-(5-tert-Butyl-2-methyl-2H-pyrazol-3-yl)-5-(2-trifluoromethoxyphenyl)-1H-benzimidazole sodium salt], for which the IC50 came to 44 nM.

For `Cn1nc(C(C)(C)C)c(Cl)c1-c1nc2cc(-c3c(F)cccc3F)cc(C(F)(F)F)c2[nH]1` [Compound 124, 2-(5-tert-Butyl-4-chloro-2-methyl-2H-pyrazol-3-yl)-5-(2,6-difluoro-phenyl)-7-trifluoromethyl-1H-benzimidazole hydrochloride], the 50% inhibitory concentration (IC50) is 7.3 nM and 4.4 nM. Moreover, the inhibition at 0.2 µM under setting [1] was 99%.

For `Cc1oc(-c2nc3cc(-c4ccccc4F)cc(C(F)(F)F)c3[nH]2)nc1C(C)(C)C` [Compound 193, 2-(4-tert-Butyl-5-methyl-oxazol-2-yl)-5-(2-fluoro-phenyl)-7-trifluoromethyl-1H-benzimidazole hydrochloride], the inhibition at 0.2 µM under setting [1] was 18%.

Consider `CCOc1ccccc1-c1ccc2[nH]c(-c3cc(C(C)C)no3)nc2c1` [Compound 6, 2-(3-Isopropylisoxazol-5-yl)-5-(2-ethoxyphenyl)-1H-benzimidazole sodium salt], for which the IC50 is 64.4 nM.

On to `Cn1nc(C2(C)CC2)cc1-c1nc2cc(-c3ccccc3C(F)(F)F)ccc2[nH]1` [Compound 52, 2-[2-Methyl-5-(1-methylcyclopropyl)-2H-pyrazol-3-yl]-5-(2-trifluoromethylphenyl)-1H-benzimidazole sodium salt], for which the half-inhibitory concentration (IC50) is 17.6 nM.

As for `Cc1c(C(C)(C)C)noc1-c1nc2cc(-c3c(F)cccc3C(F)(F)F)ccc2[nH]1` [Compound 111, 2-(3-tert-Butyl-4-methyl-isoxazol-5-yl)-5-(2-fluoro-6-trifluoromethyl-phenyl)-1H-benzimidazole hydrochloride], the IC50 was 10.1 nM.

As for `Cc1c(C(C)(C)C)nn(C)c1-c1nc2cc(-c3ccccc3F)ccc2[nH]1` [Compound 93, 2-(5-tert-Butyl-2,4-dimethyl-2H-pyrazol-3-yl)-5-(2-fluoro-phenyl)-1H-benzimidazole hydrochloride], the half-maximal inhibitory concentration (IC50) is 10.9 nM.

On to `CC(C)(C)c1cc(-c2nc3cc(-c4c(F)cccc4F)ccc3[nH]2)on1` [Compound 67, 2-(3-tert-Butyl-isoxazol-5-yl)-5-(2,6-difluoro-phenyl)-1H-benzimidazole trifluoroacetic acid salt], for which the IC50 is 15.3 nM and 16.7 nM.

For `FC(F)(F)c1ccccc1-c1ccc2nc(-c3cc(C4CCCCC4)no3)[nH]c2c1` [Compound 24, 2-(3-Cyclohexylisoxazol-5-yl)-6-(2-trifluoromethylphenyl)-1H-benzimidazole hydrochloride], the inhibition at 0.2 µM under setting [1] is 63%.

As to `FC(F)(F)c1ccccc1-c1ccc2[nH]c(-c3cc(C4CC4)no3)nc2c1` [Compound 16, 2-(3-cyclopropylisoxazol-5-yl)-5-(2-trifluoromethylphenyl)-1H-benzimidazole sodium salt], the IC50 is 58 nM.

On to `Cc1oc(C(C)(C)C)nc1-c1nc2cc(-c3ccccc3Cl)cc(C(F)(F)F)c2[nH]1` [Compound 155, 2-(2-tert-Butyl-5-methyl-oxazol-4-yl)-5-(2-chloro-phenyl)-7-trifluoromethyl-1H-benzimidazole hydrochloride], for which the inhibition at 0.2 µM under setting [1] was found to be 59%.

For the compound `Cc1nc(C(C)(C)C)oc1-c1nc2cc(-c3ccccc3Cl)cc(Cl)c2[nH]1` [Compound 181, 2-(2-tert-Butyl-4-methyl-oxazol-5-yl)-7-chloro-5-(2-chloro-phenyl)-1H-benzimidazole hydrochloride], under setting [1], the inhibition at 0.2 µM was found to be 15%.
